{"source": "patent US7723265B2", "about": "“Pesticide compositions containing oxalic acid” (Monsanto Technology, priority 2000, dated 2010)", "assay_type_in_all_cases": "in vivo", "key": {"[1]": {"system": "velvetleaf (Abutilon theophrasti, ABUTH)", "test": "Greenhouse test of herbicidal effectiveness (visual percent control) on velvetleaf", "description": "(§1) The following procedure was used for testing compositions of the Examples to determine herbicidal effectiveness, except where otherwise indicated.\nSeeds of the plant species indicated were planted in 85 mm square pots in a soil mix which was previously steam sterilized and prefertilized with a 14-14-14 NPK slow release fertilizer at a rate of 3.6 kg/m3. The pots were placed in a greenhouse with sub-irrigation. About one week after emergence, seedlings were thinned as needed, including removal of any unhealthy or abnormal plants, to create a uniform series of test pots.\nThe plants were maintained for the duration of the test in the greenhouse where they received a minimum of 14 hours of light per day. […] Exposure temperatures were not precisely controlled but averaged about 27° C. during the day and about 18° C. during the night. Plants were sub-irrigated throughout the test to ensure adequate soil moisture levels.\n(§2) Pots were assigned to different treatments in a randomized experimental design with 6 replications. A set of pots was left untreated as a reference against which effects of the treatments could later be evaluated.\nApplication of glyphosate compositions was made by spraying with a track sprayer fitted with a 9501E nozzle calibrated to deliver a spray volume of 93 liters per hectare (l/ha) at a pressure of 166 kilopascals (kPa). After treatment, pots were returned to the greenhouse until ready for evaluation.\nTreatments were made using dilute aqueous compositions. These could be prepared as spray compositions directly from their ingredients, or by dilution with water of preformulated concentrate compositions.\nFor evaluation of herbicidal effectiveness, all plants in the test were examined by a single practiced technician, who recorded percent control, a visual measurement of the effectiveness of each treatment by comparison with untreated plants. […] The reported % control values represent the average for all replicates of each treatment."}, "hemp sesbania (SEBEX)": {"system": "hemp sesbania (SEBEX)", "test": "Herbicidal effectiveness (percent control) on hemp sesbania", "details": "comparison as worded in the text of the example", "description": "as §1\n(§3) Seeds of the plant species indicated were planted in 85 mm square pots in a soil mix which was previously steam sterilized and prefertilized with a 14-14-14 NPK slow release fertilizer at a rate of 3.6 kg/m3. The pots were placed in a greenhouse with sub-irrigation. About one week after emergence, seedlings were thinned as needed, including removal of any unhealthy or abnormal plants, to create a uniform series of test pots. […]\nas §2\n(§4) Application of glyphosate compositions was made by spraying with a track sprayer fitted with a 9501E nozzle calibrated to deliver a spray volume of 93 liters per hectare (l/ha) at a pressure of 166 kilopascals (kPa). After treatment, pots were returned to the greenhouse until ready for evaluation. […]\n(§5) For evaluation of herbicidal effectiveness, all plants in the test were examined by a single practiced technician, who recorded percent control, a visual measurement of the effectiveness of each treatment by comparison with untreated plants. […]"}, "Prickly sida (SIDSP)": {"system": "Prickly sida (SIDSP)", "test": "Herbicidal effectiveness (percent control) on prickly sida", "details": "comparison as worded in the text of the example", "description": "as §1, §3, §2, §4, §5"}, "Indian Mustard (BRSJU)": {"system": "Indian Mustard (BRSJU)", "test": "Herbicidal effectiveness (percent control) on Indian mustard", "details": "comparison as worded in the text of the example", "description": "as §1, §3, §2, §4, §5"}, "[2]": {"system": "Yellow nutsedge (Cyperus esculentus, CYPES)", "test": "Herbicidal effectiveness (percent control) on yellow nutsedge", "details": "0.03% oxalic acid in potassium glyphosate tank mixes"}, "sicklepod (CASOB)": {"system": "sicklepod (CASOB)", "test": "Herbicidal effectiveness (percent control) on sicklepod", "details": "comparison as worded in the text of the example"}, "morningglory (IPOSS)": {"system": "morningglory (IPOSS)", "test": "Herbicidal effectiveness (percent control) on morningglory", "details": "comparison as worded in the text of the example", "description": "as §1, §3, §2, §4, §5"}, "[3]": {"system": "Japanese millet (Echinochloa crus-galli var. frumentae, ECHCF)", "test": "Herbicidal effectiveness (percent control) on Japanese millet", "details": "comparison as worded in the text of the example", "description": "as §1, §3, §2, §4, §5"}, "velvetleaf (ABUTH)": {"system": "velvetleaf (ABUTH)", "test": "Rainfastness of Roundup UltraMax with oxalic acid on velvetleaf", "details": "glyphosate a.e.:oxalic acid 15:1; 0.25 inches of rain one or two hours after treatment, or no rain", "procedure": "The rainfastedness of a Roundup UltraMax and oxalic acid, at a weight ratio of glyphosate a.e. to oxalic acid of 15:1, was evaluated. The Roundup UltraMax formulations were applied at rates of 300 and 500 g a.e./ha and evaluated with no rain, 0.25 inches of rain at one hour after treatment, and 0.25 inches of rain at two hours after treatment."}, "[4]": {"details": "comparison as worded in the text of the example"}}, "note": "Where two headings read alike, the source gives them in different places.", "data": [{"smiles": "C[N+](C)(C)Cc1ccccc1.[OH-]", "note": "[Benzyltrimethylammonium hydroxide]", "values": [{"measurement": "herbicidal efficacy on velvetleaf (ABUTH), result in words", "setting": "[1]; [4]", "result": "better efficacy than did the commercial Roundup UltraMax standard"}]}, {"smiles": "O=C(O)C(=O)O", "note": "[Oxalic acid]", "values": [{"measurement": "herbicidal efficacy on velvetleaf (ABUTH), result in words", "setting": "[1]", "result": "further increased efficacy"}, {"measurement": "herbicidal efficacy on hemp sesbania (SEBEX), result in words", "setting": "hemp sesbania (SEBEX)", "result": "equal with the standards regardless of the presence of oxalic acid"}, {"measurement": "herbicidal efficacy on prickly sida (SIDSP), result in words", "setting": "Prickly sida (SIDSP)", "result": "gave efficacy enhancement"}, {"measurement": "herbicidal efficacy on Indian mustard (BRSJU), result in words", "setting": "Indian Mustard (BRSJU)", "result": "did not provide significant efficacy enhancement on Indian mustard"}, {"measurement": "herbicidal efficacy on yellow nutsedge (CYPES), result in words", "setting": "[2]", "result": "did not provide synergy on yellow nutsedge"}, {"measurement": "herbicidal efficacy on sicklepod (CASOB), result in words", "setting": "sicklepod (CASOB)", "result": "did not give statistically significant efficacy enhancement on sicklepod"}, {"measurement": "herbicidal efficacy on morningglory (IPOSS), result in words", "setting": "morningglory (IPOSS)", "result": "equally effective in enhancing Roundup UltraMax efficacy on morningglory"}, {"measurement": "herbicidal efficacy on ECHCF (barnyardgrass), result in words", "setting": "[3]", "result": "did not significantly enhance glyphosate efficacy on barnyardgrass"}, {"measurement": "rainfastness on velvetleaf, result in words", "setting": "velvetleaf (ABUTH)", "result": "did not provide any rainfastness properties for Roundup UltraMax on velvetleaf"}]}, {"smiles": "O=C(O)CCC(=O)O", "note": "[Succinic acid]", "values": [{"measurement": "herbicidal efficacy on velvetleaf (ABUTH), result in words", "setting": "[1]; [4]", "result": "did not significantly effect the efficacy"}]}, {"smiles": "O=C(O)CC(O)(CC(=O)O)C(=O)O", "note": "[Citric acid]", "values": [{"measurement": "herbicidal efficacy on velvetleaf (ABUTH), result in words", "setting": "[1]; [4]", "result": "did not significantly effect the efficacy"}, {"measurement": "herbicidal efficacy on velvetleaf (ABUTH), result in words", "setting": "[1]; comparison as worded in the text of the example, listed as citric acid", "result": "did not have significant impact on the efficacy"}]}, {"smiles": "O=P(O)(O)O", "note": "[Phosphoric acid]", "values": [{"measurement": "herbicidal efficacy on velvetleaf (ABUTH), result in words", "setting": "[1]; [4]", "result": "did not significantly effect the efficacy"}, {"measurement": "herbicidal efficacy on velvetleaf (ABUTH), result in words", "setting": "[1]; comparison as worded in the text of the example, listed as phosphoric acid", "result": "did not have significant impact on the efficacy"}]}, {"smiles": "CC(=O)O", "note": "[Acetic acid]", "values": [{"measurement": "herbicidal efficacy on velvetleaf (ABUTH), result in words", "setting": "[1]; [4]", "result": "did not significantly effect the efficacy"}]}, {"smiles": "C[N+](C)(C)Cc1ccccc1.[Cl-]", "note": "[Benzyltrimethylammonium chloride]", "values": [{"measurement": "herbicidal efficacy on velvetleaf (ABUTH), result in words", "setting": "[1]; [4]", "result": "better efficacy than did the commercial Roundup UltraMax standard"}]}, {"smiles": "CC(O)C(=O)O", "note": "(centres unmarked) [Lactic acid]", "values": [{"measurement": "herbicidal efficacy on velvetleaf (ABUTH), result in words", "setting": "[1]; [4]", "result": "did not significantly effect the efficacy"}]}, {"smiles": "O=C([O-])C(=O)[O-].[K+].[K+]", "note": "[Dipotassium oxalate, dipotassium oxalate]", "values": [{"measurement": "herbicidal efficacy on velvetleaf (ABUTH), result in words", "setting": "[1]; [4]", "result": "enhanced efficacy regardless of the glyphosate salt"}, {"measurement": "herbicidal efficacy on ECHCF (barnyardgrass), result in words", "setting": "[3]", "result": "relatively ineffective for enhancing efficacy against barnyardgrass"}]}, {"smiles": "NC(=O)CCC(=O)O", "note": "[Succinamic acid]", "values": [{"measurement": "herbicidal efficacy on velvetleaf (ABUTH), result in words", "setting": "[1]; [4]", "result": "antagonistic effect on glyphosate efficacy"}]}, {"smiles": "O=C(O)[C@H](O)[C@@H](O)[C@H](O)[C@H](O)CO", "note": "[Gluconic acid]", "values": [{"measurement": "herbicidal efficacy on velvetleaf (ABUTH), result in words", "setting": "[1]; [4]", "result": "did not significantly effect the efficacy"}]}, {"smiles": "O=C(O)CCCCC(=O)O", "note": "[adipic acid, Adipic acid]", "values": [{"measurement": "herbicidal efficacy on velvetleaf (ABUTH), result in words", "setting": "[1]; [4]", "result": "some increased efficacy"}]}]}
